# Results taken from patent US12486218B2, “Compounds advantageous in the treatment of central nervous system diseases and disorders” (AurimMed Pharma, Inc., priority 2008, dated 2025).
# Key:
# mice [1] = test: Maximal Electroshock Seizure (MES) test, mice i.p.; assay type: in vivo; settings: for activity in the MES test: mice
# rats [2] = test: MES test, rats p.o.; assay type: in vivo; settings: at 30 mg/kg
# mice [3] = test: 6 Hz (minimal clonic seizure) model, mice i.p.; assay type: in vivo; settings: for 6 Hz (32 mA), fraction of animals: mice i.p.; for activity in the 6 Hz (minimal clonic seizure) model: mice, at 100 mg/kg
# SMN2 promoter = SMN2 promoter β-lactamase reporter assay in NSC34 motor neuron-like cells; assay type: cell-based; settings: for Promoter (SMN2 promoter test, summary YES/NO): Table 13 summary; for SMN2 promoter activity: treatment for 19 hours at a concentration of 1 μM
# Procedure: FIG. 30 illustrates a screen for SMN2 expression of a number of compounds described herein.
# SMN2 promoter activity was measured using NSC34 motor neuron-like cells stably transfected with a β-lactamase (BLA) reporter gene under the control of a 3.4-kilobase fragment of the SMN2 promoter. D156844 was used as a positive control for this assay.
# [4] = system: inclusion of exon 7 in SMN2 mRNAs; test: Exon 7 inclusion BLA reporter assay in NSC34 cell line; assay type: cell-based; settings: for effect on the inclusion of exon 7 in SMN2 transcripts / exon 7 test, particularly strong hits: NSC34 exon 7 BLA reporter cells; for Exon 7 inclusion (summary YES/NO): Table 13 summary
# From the text: To measure changes in the inclusion of exon 7 in SMN2 mRNAs, another NSC34 cell line was used that stably transfected with a reporter construct which expresses BLA when exon 7 is included in the SMN2 minigene mRNAs. 5-(N-ethyl-N-isopropyl)-amiloride (EIPA) was used as a positive control for this assay. Data for tis assay is illustrated in FIG. 30.
# rats [5] = test: Pilocarpine-induced Status Epilepticus in Rats (prevention; intervention @ 30 min); settings: Rattus norvegicus
# Procedure: The animal testing was performed using the protocols developed in the Anticonvulsant Screening Program (ASP) at the National Institute of Neurological Disorders and Stroke (NINDS), National Institutes of Health (NIH).
# [6] = system: type II SMA fibroblasts (GM03813); test: SMN protein localization, gem counting in type II SMA fibroblasts; assay type: cell-based; settings: 100 nM-10 μM, 5 days
# Procedure: To validate the SMN2 promoter and exon 7 screens, the effects of compounds H, H (acid form), AY, F, BX, and BY were evaluated on the basis of expression and localization of SMN protein in type II SMA fibroblasts (GM03813). In a normal cell, SMN protein localized within the nucleus to discreet foci known as gems. In SMN-deficient SMA cells, the number of gems is greatly diminished. Although the function of gems is unknown, it is believed that they are somehow involved in the snRNP assembly function of SMN. Gem counting can, therefore, be considered an assay for SMN function.
# GM03813 fibroblasts were treated with different doses (100 nM-10 μM) of compounds H, H (acid form), AY, F, BX, and BY for 5 days. SMN immunostaining was then completed on these cells and the number of gems was counted in 100 randomly-selected nuclei. […] In fact, the gem counts at the highest dose of compound H approach those observed for carrier fibroblasts (GM03814). When compared against treatment with 1 μM D157495—a D156844 derivative, all of the compounds tested performed as well as or, even better than D157495.
# mice [7] = test: Subcutaneous Metrazol Seizure threshold (s.c. MET) test, mice i.p.; assay type: in vivo; settings: for activity in the s.c. MET test: mice
# [8] = system: rat dopaminergic N27 cells; test: N27 protection assay against oxidative stress (H2O2 or MPP+; MTT and LDH); assay type: cell-based; settings: drug 24 hours before 200 μM H2O2 or 640 μM MPP+
# From the text: FIGS. 20A-25D data are shown illustrating neuroprotective and neuroregenerative effects observed in rat dopaminergic N27 cells. Rat dopaminergic N27 cells are commonly used in in vitro and in vivo model systems for studying Parkinson's disease. Parkinson's disease is a neurodegenerative disorder of the central nervous system that affects more than 6 million people worldwide. The motor symptoms of Parkinson's disease result from the death of dopamine generating cells in the substantia nigra, a region of the midbrain.
# The N27 rat dopaminergic neuron cell line was harvested from E12 rat mesencephalic tissue and was transfected with SV40 to immortalize the cell line. The N27 cell line, when injected into the striata of 6-hydroxydopamine-lesioned rats (an animal model of PD) caused a time-dependent improvement in neurological deficits. This immortalized cell line has been carefully characterized in studies of dopamine biosynthesis, neurotoxicity and used as a dopaminergic neuron model studies.
# The N27 in vitro Parkinson's disease model included a test of cell viability and cell toxicity in response to exposure to oxidative stress (e.g., either 200 μM H2O2 or 640 μM MPP+).
# Cell viability was tested using the MTT assay. The MTT assay is a colorimetric analysis based on the activities of mitochondrial NAD(P)H-dependent cellular oxidoreductase enzymes. These enzymes are capable of reducing the tetrazolium dye, MTT [3-(4,5-dimethylthiazol-2-yl)-2,5-diphenyltetrazolium] bromide, to an insoluble formazan (purple). […] More viable cells equal more accumulation of the insoluble formazan dye.
# Cell toxicity was tested using the […] (LDH) assay. Cells that are stressed secrete LDH. In general, the more cells are stressed, the LDH they secrete into their media. The LDH assay is a reliable colorimetric assay to measure quantitatively the […] (LDH) that is released into the cell culture media from damaged cells as a biomarker for cytotoxicity and cytolysis.
# FIGS. 20A-25D present data from two types of assays: protection and recovery assays. In the protection assays, the drug candidate was applied to the cells at various concentrations for 24 hours, followed by the exposure to oxidative stress (either 200 μM H2O2 or 640 μM MPP+) for measuring neuroprotective effect. H2O2 provides a broad measure of oxidative stress, while MPP+ gives a more specific oxidative stress to dopaminergic neurons.
# The protection assay results are shown in panels A-C of FIGS. 20-25 In the recovery assays, the cells were first damaged by exposure to H2O2 and then various concentrations of the drug were applied to the cells. The results for the recovery assays are shown the D panels of FIGS. 20-25.
# mice [9] = test: Corneal kindled mouse model; assay type: in vivo; settings: mice i.p.; 100 mg/kg @ 0.25 hr
# mice [10] = test: Minimal motor impairment (MID50), mice i.p.; settings: mice i.p.
# Procedure: (§1) The animal testing was performed according to methods known in the relevant art.
# in vivo = settings: mouse, ip
# Procedure: as §1
# [11] = 0.5 h, read-out: Intervention @ 30 min, Protection
# [12] = read-out: Prevention, Protection
smiles,measurement,setting,value
"CC(CC(=O)N1CCCC1)c1ccc(OC(F)(F)F)cc1 (stereo not drawn) [BG, 1-Pyrrolidin-1-yl-3-(4-trifluoromethoxy-phenyl)-butan-1-one]","MES, fraction of animals","mice [1]; mice i.p., 100 mg/kg @ 0.5 hr",1/3 @
same,activity in the MES test,mice [1]; at 100 mg/kg,activity
same,activity in the MES test,rats [2],activity
"COc1ccc(C(CC(N)=O)C2CC2)cc1 (stereo not drawn) [AM, 3-Cyclopropyl-3-(4-methoxy-phenyl)-propionamide]","MES, fraction of animals","mice [1]; mice i.p., 100 mg/kg @ 0.25 hr",1/3 @
same,activity in the MES test,mice [1]; at 100 mg/kg,activity
same,"6 Hz (32 mA), fraction of animals",mice [3]; 100 mg/kg @ 0.25 hr,1/4
same,"6 Hz (32 mA), fraction of animals",mice [3]; 100 mg/kg @ 0.5 hr,2/4
same,"6 Hz (32 mA), fraction of animals",mice [3]; 100 mg/kg @ 1.0 hr,1/4 @
same,activity in the MES test,rats [2],activity
same,"SMN2 promoter assay, particularly strong hits",SMN2 promoter; NSC34 BLA reporter cells,Particularly strong hits
same,"Promoter (SMN2 promoter test, summary YES/NO)",SMN2 promoter,YES
same,SMN2 promoter activity,SMN2 promoter,increased SMN2 promoter activity
same,effect on the inclusion of exon 7 in SMN2 transcripts,[4],positive effect on the inclusion of exon 7
same,"exon 7 test, particularly strong hits",[4],Particularly strong hits
same,Exon 7 inclusion (summary YES/NO),[4],YES
same,responders at 400 mg/kg,rats [5]; [11],38%
same,responders at 200 mg/kg,rats [5]; [12],100%
"NC(=O)[C@@H]1C[C@H]1c1ccccc1 (relative stereo) [Compound P, trans-2-phenylcyclopropane-1-carboxamide]",activity in the MES test,mice [1]; at 300 mg/kg,activity
same,activity in the MES test,rats [2],activity
same,responders at 450 mg/kg,rats [5]; [12],100%
"CC(CC(N)=O)c1ccc(N2CCOCC2)cc1 (stereo not drawn) [Compound AY, 3-(4-Morpholin-4-yl-phenyl)-butyramide]","6 Hz (32 mA), fraction of animals",mice [3]; 100 mg/kg @ 1.0 hr,1/4
same,activity in the 6 Hz (minimal clonic seizure) model,mice [3],activity
same,SMN2 promoter activity,SMN2 promoter,increased SMN2 promoter activity
same,"gem counts (SMN immunostaining, 100 nuclei)",[6],increase gem counts in a dose-dependent manner
same,responders at 600 mg/kg,rats [5]; [12],38%
"CC(C)C(CC(N)=O)c1ccc(F)cc1 (stereo not drawn) [AQ, 3-(4-Fluoro-phenyl)-4-methyl-pentanoic acid-amide]",activity in the MES test,mice [1]; at 100 mg/kg,activity
same,activity in the s.c. MET test,mice [7]; at 300 mg/kg,activity
same,activity in the MES test,rats [2],activity
same,"SMN2 promoter assay, evidence of activity (may warrant further study)",SMN2 promoter; NSC34 BLA reporter cells,show evidence of activity
same,responders at 65 mg/kg,rats [5]; [12],86%
"COc1ccc(C(CC(N)=O)C(C)C)cc1C (stereo not drawn) [AS, 3-(4-Methoxy-3-methyl-phenyl)-4-methylpentanoic acid amide]",activity in the MES test,mice [1]; at 100 mg/kg,activity
same,activity in the MES test,rats [2],activity
same,neuroprotective effect against H2O2 and MPP+ oxidative stresses (MTT and LDH assays),[8],potent dose-dependent neuroprotective effects
same,"Promoter (SMN2 promoter test, summary YES/NO)",SMN2 promoter,YES
same,SMN2 promoter activity,SMN2 promoter,increased SMN2 promoter activity
same,responders at 200 mg/kg,rats [5]; [12],100%
"NC(=O)CC(c1ccc(Cl)cc1)C1CC1 (stereo not drawn) [X, 3-(4-Chloro-phenyl)-3-cyclopropyl-propionamide]",activity in the MES test,mice [1]; at 100 mg/kg,activity
same,activity in the s.c. MET test,mice [7]; at 300 mg/kg,activity
same,"6 Hz (32 mA), fraction of animals",mice [3]; 75 mg/kg @ 1.0 hr,4/4
same,"6 Hz (32 mA), fraction of animals",mice [3]; 75 mg/kg @ 2.0 hr,2/4
same,"6 Hz (32 mA), fraction of animals",mice [3]; 75 mg/kg @ 4.0 hr,1/4 @
same,"Corneal Kindled, Average seizure score",mice [9],score is 3:
same,"Corneal Kindled, fraction of animals",mice [9],2/4 @
same,activity in the MES test,rats [2],activity
same,neuroprotective effect against H2O2 and MPP+ oxidative stresses (MTT and LDH assays),[8],"statistically significant, dose-dependent neuroprotection"
same,"Promoter (SMN2 promoter test, summary YES/NO)",SMN2 promoter,YES
same,SMN2 promoter activity,SMN2 promoter,increased SMN2 promoter activity
"CC(CC(N)=O)c1ccccc1OC(F)(F)F (stereo not drawn) [BU, 3-[2-(trifluoromethoxy)-phenyl]butyramide]","MES, fraction of animals","mice [1]; mice i.p., 100 mg/kg @ 0.5 hr",3/3
same,"MES, fraction of animals","mice [1]; mice i.p., 100 mg/kg @ 4.0 hr",2/3
same,activity in the MES test,mice [1]; at 100 mg/kg,activity
same,"SMN2 promoter assay, particularly strong hits",SMN2 promoter; NSC34 BLA reporter cells,Particularly strong hits
same,"Promoter (SMN2 promoter test, summary YES/NO)",SMN2 promoter,YES
same,SMN2 promoter activity,SMN2 promoter,increased SMN2 promoter activity
same,effect on the inclusion of exon 7 in SMN2 transcripts,[4],positive effect on the inclusion of exon 7
same,"exon 7 test, particularly strong hits",[4],Particularly strong hits
same,Exon 7 inclusion (summary YES/NO),[4],YES
same,"MID50, fraction of animals",mice [10]; 100 mg/kg @ 0.5 hr,5/8 @
same,responders at 127 mg/kg,rats [5]; [11],50%
same,responders at 65 mg/kg,rats [5]; [12],100%
NC(=O)CC1(c2ccc(Cl)cc2)CC1 [AH],MES ED50,"mice [1]; mice i.p., @ 0.25 hr",69.6 mg/kg
same,s.c. MET ED50,"mice [7]; mice i.p., @ 0.25 hr, in mg/kg",77.98
same,neuroprotective effect against H2O2 and MPP+ oxidative stresses (MTT and LDH assays),[8],"statistically significant, dose-dependent neuroprotection"
same,MID50 (TD50),mice [10]; @ 0.25 hr,185.73
CC(CC(=O)O)c1ccc(OC(F)(F)F)cc1 (racemic) [H (acid form)],"gem counts (SMN immunostaining, 100 nuclei)",[6],increase gem counts in a dose-dependent manner
same,relative potency in increasing gem counts,[6],most potent
"CCC(CC(N)=O)c1ccc(C(F)(F)F)cc1 (stereo not drawn) [Compound AA, 3-(4-Trifluoromethylphenyl)-pentanamide]",ED50,"mice [1]; Mus musculus, ip, mice i.p., @ 0.5 hrs",86.6 mg/kg
same,activity in the MES test,mice [1]; at 100 mg/kg,activity
same,ED50,"mice [7]; Mus musculus, mice i.p., @ 0.5 hrs",149 mg/kg
same,activity in the s.c. MET test,mice [7]; at 300 mg/kg,activity
same,activity in the 6 Hz (minimal clonic seizure) model,mice [3],activity
same,activity in the MES test,rats [2],activity
same,neuroprotective effect against H2O2 and MPP+ oxidative stresses (MTT and LDH assays),[8],"statistically significant, dose-dependent neuroprotection"
same,"SMN2 promoter assay, particularly strong hits",SMN2 promoter; NSC34 BLA reporter cells,particularly strong hits
same,"Promoter (SMN2 promoter test, summary YES/NO)",SMN2 promoter,YES
same,SMN2 promoter activity,SMN2 promoter,increased SMN2 promoter activity
same,TD50 at 0.25 hr,in vivo,142 mg/kg
"CC(CC(N)=O)c1ccc(Cl)cc1 (stereo not drawn) [BV, 3-[4-chloro-phenyl]butyramide]","MES, fraction of animals","mice [1]; mice i.p., 100 mg/kg @ 0.5 hr",2/3 @
same,activity in the MES test,mice [1]; at 100 mg/kg,activity
same,activity in the MES test,rats [2],activity
"NC(=O)CC(c1ccc(F)cc1)C1CC1 (stereo not drawn) [Y, 3-Cyclopropyl-3-(4-fluoro-phenyl)propionamide]",activity in the MES test,mice [1]; at 100 mg/kg,activity
same,"s.c. MET, fraction of animals","mice [7]; mice i.p., 100 mg/kg @ 0.5 hr","2/5 @0.5 hrs,"
same,activity in the s.c. MET test,mice [7]; at 100 mg/kg,activity
same,activity in the 6 Hz (minimal clonic seizure) model,mice [3],activity
same,"Corneal Kindled, Average seizure score",mice [9],"0: (0, 0,"
same,"Corneal Kindled, fraction of animals",mice [9],4/4 @
same,SMN2 promoter activity,SMN2 promoter,increased SMN2 promoter activity
same,responders at 65 mg/kg,rats [5]; [12],88%
